Laboratory results published in PMC11345766, “Computational Design of Pore-Forming Peptides with Potent Antimicrobial and Anticancer Activities” (Journal of Medicinal Chemistry, 2024).

Tests used:
[1] = Calcein dye leakage assay from LUVs; type: biochemical; details: P:L 1:100; pH 7.4
Description: To verify the pore-forming mechanism of action of the designed AMPs, we performed a calcein leakage assay. […] These lipid vesicles were used as simple mimics of bacterial membranes.[58] At the lowest tested peptide-to-lipid (P:L) ratio of 1:100 (mol/mol), three mutants (LP18, LP26, and LP40) caused >90% leakage, which was higher than the leakage caused by LP1 (87%). […] At the same concentration, LP23 caused leakage equivalent to that caused by LP1. Other mutants had lower leakage activity. At a higher P:L ratio of 1:50, all the abovementioned mutants caused 100% leakage, equivalent to that caused by LP1.
Pore-forming activity was tested using a dye leakage assay measuring the leakage of self-quenching fluorescent dye calcein from POPC:POPG (1:1 mol/mol) LUVs. DiD was mixed with lipids (1:500 mol/mol), and lipid film was created by evaporating chloroform, followed by 4 h of desiccation. Dried lipid film was dissolved in calcein buffer (35 mM calcein, 25 mM NaH2PO4·H2O and Na2HPO4·7H2O (3:7 mol/mol), 20 mM NaCl, and 1 mM EDTA). After 10 freeze–thaw cycles, the sample was extruded 50 times through a 100 nm pore size polycarbonate membrane filter. Free calcein in solution was removed using a HiTrap Desalting column. The concentrations of LUVs and peptides were adjusted to 0.02 and 0.1 mM, respectively, in PBS (25 mM NaH2PO4·H2O and Na2HPO4·7H2O (3:7 mol/mol), 100 mM NaCl, and 1 mM EDTA). The investigated P/L ratio was from 1:100 to 1:10 (mol/mol). Fluorescence intensity was measured using a HORIBA Scientific Jobin Yvon FluoroLog-3 Modular Spectrofluorometer (USA). Excitation and emission wavelengths were set to 495 and 520 nm, respectively. Triton X-100 10% caused 100% leakage used for normalization.

E. coli (TOP10) = assay: Broth microdilution antimicrobial susceptibility assay; type: cell-based, Escherichia coli; details: 24 h, MHB
Outline: (§1)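 Bacteria were grown on MHA for 24 h, subcultured in MHB for 6 h at 37 °C and diluted to 10^6 CFU/mL. Compounds were serially diluted from 50 to 0.1 μM, inoculated and incubated for 24 h at 37 °C. MIC was the lowest concentration with no visible turbidity.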

S. carnosus (CCM 4838T) = assay: microbe, parasite or virus in culture; type: cell-based, Staphylococcus carnosus; details: CCM 4838, 24 h; read-out: Antimicrobial activity (MIC) S. carnosus (CCM 4838T)
Outline: as §1

[2] = test system: murine macrophages RAW 264.7; details: 24 h
Procedure: Cytotoxicity against human immortalized keratinocytes HaCaT, human alveolar basal epithelial A549 (derived from adenocarcinoma), and murine macrophages RAW 264.7 was tested using MTT [3-(4,5-dimethylthiazol-2-yl)-2,5-diphenyltetrazolium bromide] assay. Cells were cultured in Dulbecco’s modified Eagle’s medium (DMEM) containing 4 mM glutamine for HaCaT, or 2 mM glutamine for A549 and RAW 264.7 cells, supplemented with 10% heat-inactivated fetal bovine serum (FBS) and antibiotics (0.1 mg/mL penicillin and streptomycin). Nonessential amino acids (NEAA) and sodium pyruvate (1 mM) were added for macrophages. Cell lines were grown in 25 and 75 cm^2 flasks at 37 °C in a humidified atmosphere with 5% CO2. Cells were suspended in DMEM, containing glutamine, NEAA, and sodium pyruvate (as described above), supplemented with 2% FBS, plated in 96-well plates at 4 × 10^4 cells/well, and incubated at 37 °C in a 5% CO2 atmosphere. After overnight incubation, the medium was replaced with fresh DMEM supplemented with peptides at different concentrations: 2, 4, 8, 16, 32, 64, and 128 μM. Negative controls were cells without peptides. After 24 h of peptide treatment at 37 °C in a 5% CO2 atmosphere, medium was replaced with Hank’s buffer (136 mM NaCl, 0.34 mM Na2HPO4, 0.44 mM KH2PO4, 5.4 mM KCl, 4.1 mM NaHCO3, supplemented with 5.5 mM D-glucose) containing 0.5 mg/mL MTT. Mitochondrial dehydrogenases converted soluble yellow dye MTT to insoluble purple formazan. After 4 h of incubation, acidified isopropanol was added to dissolve formazan crystals and measured for OD570 using Tecan microplate reader Infinite M200 (Salzburg, Austria).

[3] = test system: A. baumannii (ATCC 19606); assay: Neutropenic murine deep thigh infection model; type: in vivo, mouse; details: single intraperitoneal dose at 10 times the MIC; four days after treatment
Description: Mice were euthanized 4 days postinfection (day 8).
Each experimental group comprised three mice.

[4] = test system: cytoplasmic membranes of ESKAPEE pathogens; assay: Cytoplasmic membrane depolarization assay, DiSC3-(5); type: cell-based; details: both Gram-negative and Gram-positive bacteria; peptides at their MICs
Procedure: First, we investigated the ability of the peptides to depolarize the cytoplasmic membranes of ESKAPEE pathogens. […] Bacteria were incubated with 3,3′-dipropylthiadicarbocyanine iodide [DiSC3-(5)] dye, and the dye fluorescence was measured after peptide treatment. DiSC3-(5) is sensitive to transmembrane potential changes. It accumulates in the cytoplasmic membrane with quenched fluorescence, and when the membrane potential becomes unbalanced, the dye molecules translocate to the outside environment, resulting in increased fluorescence.[56] The three potent AMPs (LP1, LP18, and LP28) and the H-variant (LP40) depolarized the cytoplasmic membrane of both Gram-negative and Gram-positive bacteria at their MICs.
The cytoplasmic membrane depolarization activity of the peptides was determined by measuring the fluorescence of membrane-potential-sensitive dye DiSC3-(5). A. baumannii ATCC 19606, E. coli ATCC 11775, K. pneumoniae ATCC 13883, P. aeruginosa PAO1, S. aureus ATCC 12600, and E. faecium ATCC 700221 were grown to mid log phase (OD600 = 0.5) at 37 °C and then centrifuged (10,000 rpm at 4 °C for 10 min). Cells were washed twice with a buffer containing 20 mM glucose and 5 mM HEPES (pH 7.2) and diluted 1:10 (OD600 = 0.05) in a buffer with 0.1 M KCl, […], and 5 mM HEPES (pH 7.2). Fluorescence was recorded at the excitation and emission wavelengths of 622 and 670 nm, respectively. Bacterial solution (100 μL) was incubated for 15 min with 20 nM of DiSC3-(5) until fluorescence reached a plateau. Changes in transmembrane potential were monitored by observing the difference in fluorescence emission intensity after adding peptides (100 μL at their MICs) for 45 min. Assay was performed in triplicate.

E. faecium (ATCC 700221) = details: resistant to vancomycin
Description: (§2) The effect of net charge was further investigated against six reference strains of ESKAPEE pathogens (Figure 3b).

[5] = test system: A. baumannii (ATCC 19606); details: clinically relevant strain
Description: as §2

E. coli AIC221 = details: Figure 3c
Description: as §2

A. baumannii (Z13) = details: Z13, 18 h
[6] = single intraperitoneal dose at 10 times the MIC
Procedure: Neutropenic mice were infected intramuscularly (in the right thigh) with 10^6 cells per mL of Gram-negative A. baumannii (ATCC 19606).
(a) Schematic of the deep thigh infection model in which bacteria are injected intramuscularly at day 4 and peptides are administered intraperitoneally also at day 4 to assess their anti-infective activity. Mice were euthanized 4 days postinfection (day 8). Each group consisted of six mice (n = 6), and the bacterial loads used to infect the mice derived from three different inocula. […] Polymyxin B (0.006 mg/kg) and levofloxacin (0.014 mg/kg) were used as the reference antibiotics. Statistical significance was done using one-way ANOVA followed by Dunnett’s test. Violin plots represent the median, upper quartile, and lower quartile. (c) Mouse weight was monitored to exclude possible toxic effects of the peptides.
Six-week-old female CD-1 mice (obtained from Charles River; stock number 18679700-022) underwent neutropenia induction via two intraperitoneal doses of cyclophosphamide (150 mg kg^–^1) administered with a 72 h interval. One day later, the mice received an intramuscular injection containing A. baumannii ATCC 19606 (10^6 CFU mL^–1) in the right thigh. Bacteria were cultured in LB broth, washed twice with PBS (pH 7.4), and resuspended to the desired concentration. […] Polymyxin B (0.006 mg/kg) and levofloxacin (0.014 mg/kg) were used as the reference antibiotics. Prior to each injection, mice were anesthetized with isoflurane and their respiratory rate and pedal reflexes were monitored. Subsequently, we observed the infection establishment and euthanized the mice. The infected area was excised 4 days postinfection (i.e., 8 days after the beginning of the experiment), homogenized using a bead beater for 20 min (25 Hz), and 10-fold serially diluted for CFU quantification on MacConkey agar plates. Each experimental group comprised three mice. All experiments were conducted blindly, and no animals were excluded from the analysis. Statistical significance was assessed using one-way ANOVA followed by Dunnett’s test on log10-transformed data to mitigate outlier effects; p values are reported for each group, with all groups compared to the untreated control group.

H-KKKKKLKKILKKLFQFINQLDNQLQDIKKKKK-OH [LP28]
Calcein leakage (%) from LUVs at P:L 1:100 (mol/mol) [1]: 74.0 ± 6.7%
MIC (E. coli (TOP10)): 0.4 µM
MIC (S. carnosus (CCM 4838T)): 0.4 µM
IC50 [2]: 31 µM
Reduction of bacterial load [3]: did not significantly reduce the bacterial load
Depolarization of the cytoplasmic membrane [4]: depolarized
MIC (E. faecium (ATCC 700221)): 0.8 µM
MIC [5]: 0.8 µM
MIC (E. coli AIC221): 0.8 µM
MIC (A. baumannii (Z13)): 1 µM
Change in mouse weight [6]: no significant change in mouse weight
